The record followed here is patent US6060462A, “Electrophilic peptide analogs as inhibitors of trypsin-like enzymes” (DuPont Pharmaceuticals Company, priority 1997, dated 2000).

Where a name gives a salt, the structure may show the parent alone. Bounds are passed on as bounds.

Type in all cases: biochemical
For one assay, the target named is T1, human factor Xa (Homo sapiens, UniProt P00742).
T1 construct: 0.2-0.5 nM human thrombin or human factor Xa; purchased Enzyme Research Laboratories, South Bend, Ind
T1 sequence (P00742 235-488 limits assumed): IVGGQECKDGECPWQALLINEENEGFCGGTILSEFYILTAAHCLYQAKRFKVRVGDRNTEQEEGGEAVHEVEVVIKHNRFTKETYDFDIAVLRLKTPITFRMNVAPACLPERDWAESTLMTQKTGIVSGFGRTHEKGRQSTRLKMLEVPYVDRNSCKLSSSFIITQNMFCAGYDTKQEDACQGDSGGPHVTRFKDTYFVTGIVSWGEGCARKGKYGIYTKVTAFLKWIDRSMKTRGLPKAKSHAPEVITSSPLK
T1 sequence (P00742 41-179 partner limits assumed): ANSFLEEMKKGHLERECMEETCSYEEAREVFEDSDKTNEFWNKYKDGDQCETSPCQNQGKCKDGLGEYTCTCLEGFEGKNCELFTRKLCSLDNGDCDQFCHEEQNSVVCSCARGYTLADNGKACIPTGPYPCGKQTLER
Nature of the assay: Inhibition of Factor Xa hydrolysis of chromogenic substrate S2222 (Ki). The conditions noted are these: purified human factor Xa, 0.10 M sodium phosphate buffer; for Ki: pH 7.5, read-out: Ki values for inhibition of Serine Proteases: Factor Xa; for Ki values for inhibition of Serine Proteases: Factor Xa: pH 7.5. On the procedure: (§1) The effectiveness of compounds of the present invention as inhibitors of blood coagulation proteases was determined using purified human proteases and synthetic substrates following procedures similar to those described in Kettner et al. (1990).
(§2) For these assays, the rate of enzymatic (thrombin, Factor Xa, and Factor VIIa) hydrolysis of chromogenic substrates (S2238 (H-D-Phe-Pip-Arg-pNA), S2222, and S2288, respectively; Kabi Pharmacia, Franklin, Ohio) was measured both in the absence and presence of compounds of the present invention. […] A decrease in the rate of absorbance change at 405 nm in the presence of inhibitor is indicative of enzyme inhibition. The results of this assay are expressed as inhibitory constant, Ki.
(§3) Thrombin and Xa determinations were made in 0.10 M sodium phosphate buffer, pH 7.5, containing 0.20 M NaCl, and 0.5% PEG 8000. VIIa determinations were made in 0.05 M tris buffer, pH 7.6, containing 0.10 M NaCl, 4 mM CaCl2, and 0.1% bovine serum albumin.
(§4) Reactions were allowed to go for 30 minutes and the velocities (rate of absorbance change vs time) were measured in the time frame of 25-30 minutes. The following relationship was used to calculate Ki values. [formula] where: vo is the velocity of the control in the absence of inhibitor;
(§5) vs is the velocity in the presence of inhibitor;
(§6) I is the concentration of inhibitor;
(§7) Ki is the dissociation constant of the enzyme: inhibitor complex;
(§8) S is the concentration of substrate;
(§9) Km is the Michaelis constant.

The next assay addresses T2, human factor VIIa (Homo sapiens, UniProt P08709).
T2 construct: 50 nM human factor VIIa (BiosPacific, Emeryville, Calif.); purchased BiosPacific, Emeryville, Calif
T2 sequence (P08709 213-466 limits assumed): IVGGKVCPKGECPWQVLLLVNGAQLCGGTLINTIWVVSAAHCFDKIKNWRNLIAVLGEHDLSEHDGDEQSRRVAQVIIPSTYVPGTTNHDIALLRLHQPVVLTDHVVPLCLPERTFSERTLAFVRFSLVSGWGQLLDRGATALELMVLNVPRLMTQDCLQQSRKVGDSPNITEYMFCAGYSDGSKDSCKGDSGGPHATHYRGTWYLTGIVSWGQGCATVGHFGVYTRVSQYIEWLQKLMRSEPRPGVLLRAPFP
T2 sequence (P08709 61-212 partner limits assumed): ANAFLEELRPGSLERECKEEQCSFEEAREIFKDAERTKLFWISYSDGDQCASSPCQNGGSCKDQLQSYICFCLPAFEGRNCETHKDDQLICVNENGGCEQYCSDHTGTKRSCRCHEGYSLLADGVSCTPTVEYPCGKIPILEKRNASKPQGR
Kind of assay: Inhibition of Factor VIIa hydrolysis of chromogenic substrate S2288 (Ki). The conditions noted are these: purified human factor VIIa, 0.05 M tris buffer; for Ki: pH 7.6, read-out: Ki values for inhibition of Serine Proteases: Factor VIIa; for Ki values for inhibition of Serine Proteases: Factor VIIa: pH 7.6. As to the method: as §1, §2, §3, §4, §5, §6, §7, §8, §9

A further assay has as its target human thrombin (Homo sapiens, UniProt P00734). Kind of assay: Inhibition of thrombin hydrolysis of chromogenic substrate S2238 (Ki). Also on record: 0.2-0.5 nM human thrombin or human factor Xa; purchased Enzyme Research Laboratories, South Bend, Ind. The conditions noted are these: purified human thrombin, 0.10 M sodium phosphate buffer, pH 7.5, read-out: Ki values for inhibition of Serine Proteases: Trombin. On the procedure:
as §1, §2, §3, §4, §5, §6, §7, §8, §9

Turning to “Hydrocinnamoyl-[N-(2-(Cyclopropyl)-Phenethyl)-Gly]-boroOrn(CH=NH)--OH HCl [Example 57.1.2]”, the inhibition constant Ki at human factor Xa, on human factor VIIa and at human thrombin was less than 0.5 µM throughout.

“Hydrocinnamoyl-[N-(2,2-(Dimethyl)-Phenethyl)-Gly]-boroOrn(CH=NH)--OH HCl [Example 57.1.1]”: the Ki at human factor Xa, at human factor VIIa and on human thrombin was less than 0.5 µM each time.

Regarding “Hydrocinnamoyl-Sar-Lys(Z)--C(=O)--O-(CH2)2--NH(Z) [Example 61.1.2]”, the “Ki values for inhibition of Serine Proteases: Factor Xa” value (from here on “Ki values for inhibition … Factor Xa”) on human factor Xa is “Inactive”. Besides, on human factor VIIa, the “Ki values for inhibition of Serine Proteases: Factor VIIa” value (shortened to “Ki values for inhibition … Factor VIIa”) is given as “Inactive”. The Ki at human thrombin was less than 50 µM.

For the compound `Cc1cc(C)cc(CCN(CC(=O)NC(CCCCN)B2OC3CC4CC(C4(C)C)C3(C)O2)C(=O)CCc2ccccc2)c1` (centres unmarked) [Example 54.4.1, Hydrocinnamoyl-{N-[2-(3,5-dimethylphenyl)-ethyl]-Gly}-boroLys-C10H16 HCl], the Ki at human factor Xa and on human factor VIIa was less than 50 µM throughout.

As for `Cc1cc(C)cc(C(C)(C)CN(CC(=O)NC(CCCN=C(N)N)B2OC3CC4CC(C4(C)C)C3(C)O2)C(=O)CCc2ccccc2)c1` (centres unmarked) [Example 56.3.3, Hydrocinnamoyl-{N-[2,2-(Dimethyl)-2-(3,5-dimethylphenyl)-ethyl]-Gly}-boroArg-C10H16 HCl], the Ki at human factor Xa, on human factor VIIa and on human thrombin was less than 0.5 µM throughout.

Take `CN(CC(=O)NC(CO)CCCCN)C(=O)CCc1ccccc1` (centres unmarked) [Example 61.3.1, Hydrocinnamoyl-Sar-NHCH(CH20H)(CH2)4--NH2]: at human factor Xa, the “Ki values for inhibition … Factor Xa” value is listed as “Inactive”. For the same compound, the “Ki values for inhibition … Factor VIIa” value at human factor VIIa was “Inactive”. Moreover, on human thrombin, the Ki is less than 50 µM.

Regarding `CN(CC(=O)NC(CCCBr)B1OC2CC3CC(C3(C)C)C2(C)O1)C(=O)c1ccccc1Sc1ccccc1C#N` (centres unmarked) [Example 62.1.1], the Ki on human factor Xa, on human factor VIIa and on human thrombin was less than 50 µM in each case.

Take “Pinanediol N-{N-methyl-N-[2-(Thiophenyl)-Benzoyl]Sar}-1-amido-5-thiocyanatobutane boronate [Example 63.5.1]”: the Ki at human factor Xa and at human thrombin was less than 50 µM in each case. Moreover, the “Ki values for inhibition … Factor VIIa” value at human factor VIIa was “inactive”.

`CN(CC(=O)NC(CCCN)B1OC2CC3CC(C3(C)C)C2(C)O1)C(=O)c1ccccc1Sc1ccccc1.Cl` (centres unmarked) [Example 63.3.1, 2-(Thiophenyl)-Benzoyl-Sar-boroOrn-C10H16 HCl]: the values for the Ki at human factor Xa and on human thrombin were less than 50 µM and less than 0.5 µM, respectively. The “Ki values for inhibition … Factor VIIa” value on human factor VIIa was “inactive”.

For `Cc1cccc(CCN(CC(=O)NC(CCCCN)B2OC3CC4CC(C4(C)C)C3(C)O2)C(=O)CCC(=O)O)c1` (centres unmarked) [Example 73.1.2, Succinyl-[N-(3-(Methyl)-Phenethyl)-Gly]-boroLys-C10H16 HCl], the Ki was less than 0.5 µM on human factor Xa, less than 50 µM on human factor VIIa and less than 0.5 µM at human thrombin.

As for `CC(=O)N(CC(=O)NC(CCCCN)B1OC2CC3CC(C3(C)C)C2(C)O1)Cc1ccccc1Cc1ccccc1` (centres unmarked) [Example 64.1.2, Acetyl-Gly[N-(2-(Benzyl)-Benzyl)]-boroLys-C10H16 HCl], the Ki at human factor Xa is less than 50 µM; on human factor VIIa, less than 0.5 µM; on human thrombin, less than 0.5 µM.

Consider “2-(Benzyl)-Benzoyl-Sar-Lys--C(=O)--NHNH2 2 HCl [Example 70.4.2]”, for which the Ki on human factor Xa and at human thrombin was less than 50 µM each time. Further, the “Ki values for inhibition … Factor VIIa” value on human factor VIIa is “inactive”.

Consider `CN(CC(=O)NC(CCCCN=[N+]=[N-])B1OC2CC3CC(C3(C)C)C2(C)O1)C(=O)c1ccccc1Sc1ccccc1C#N` (centres unmarked) [Example 62.2.3], for which the Ki at human factor Xa, at human factor VIIa and at human thrombin was less than 50 µM each time.

On to `COC(=O)CC(C)(C)CC(=O)N(CCc1ccccc1)CC(=O)NC(CCCCN)B1OC2CC3CC(C3(C)C)C2(C)O1` (centres unmarked) [Example 67.1.3, Methyl Glutaryl(3,3-Dimethyl)-[N-(Phenethyl)-Gly]-boroLys-C10H16 HCl], for which the Ki was less than 0.5 µM on human factor Xa, less than 50 µM at human factor VIIa and less than 0.5 µM at human thrombin.

Regarding `CN(CC(=O)NC(CCCSC(=N)N)B1OC2CC3CC(C3(C)C)C2(C)O1)C(=O)c1ccccc1Sc1ccccc1` (centres unmarked) [Example 63.1.3, 2-(Thiophenyl)-Benzoyl-Sar-boroIrg-C10H16 HBr], the inhibitory constant (Ki) at human factor Xa is less than 0.5 µM; on human factor VIIa, less than 50 µM; on human thrombin it was less than 0.5 µM.

With `CC(C)(CC(=O)O)CC(=O)N(CCc1ccccc1)CC(=O)NC(CCCCN)B1OC2CC3CC(C3(C)C)C2(C)O1` (centres unmarked) [Example 67.1.2, Glutaryl(3,3-Dimethyl)-[N-(Phenethyl)-Gly]-boroLys-C10H16], the inhibition constant (Ki) on human factor Xa was less than 50 µM; at human factor VIIa, less than 50 µM; at human thrombin, less than 0.5 µM.

As for `CN(CC(=O)NC(CCCN)B1OC2CC3CC(C3(C)C)C2(C)O1)C(=O)c1ccccc1Sc1ccccc1C#N` (centres unmarked) [Example 62.3.1, (2-(2-Cyano)-Thiophenyl)-Benzoyl-Sar-boroOrn-C10H16 HCl], the Ki on human factor Xa, at human factor VIIa and on human thrombin was less than 50 µM throughout.

For `CN(CC(=O)NC(CCCCNC(=N)N)B1OC2CC3CC(C3(C)C)C2(C)O1)C(=O)c1ccccc1Sc1ccccc1C#N` (centres unmarked) [Example 62.3.2, (2-(2-Cyano)-Thiophenyl)-Benzoyl-Sar-borohomoArg-C10H16 HCl], the Ki at human factor Xa is less than 0.5 µM; on human factor VIIa, less than 50 µM; at human thrombin, less than 0.5 µM.

For `CC1(C)C2CC3OB(C(CCCCN)NC(=O)CN(CCc4cccc(C(F)(F)F)c4)C(=O)CCc4ccccc4)OC3(C)C1C2` (centres unmarked) [Example 51.1.1, Hydrocinnamoyl-[N-(3-(Trifluoromethyl)-Phenethyl)-Gly]-boroLys--C10H16 HCl], the Ki at human factor Xa was less than 0.5 µM; on human factor VIIa it was less than 50 µM; at human thrombin it was less than 0.5 µM.

Turning to “Hydrocinnamoyl-Sar-Lys--C(=O)--O--(CH2)2--NH2 2 HCl [Example 61.1.3]”, the Ki on human factor Xa and at human thrombin was less than 50 µM in each case. Further, the “Ki values for inhibition … Factor VIIa” value at human factor VIIa was “Inactive”.

As for `CC1(C)C2CC3OB(C(CCCCN)NC(=O)CN(C(=O)CCC(=O)O)C(=O)CCc4ccccc4)OC3(C)C1C2` (centres unmarked) [Example 54.2.3, Hydrocinnamoyl-[N-(Succinyl)-Gly]-boroLys-C10H16], the inhibition constant (Ki) is less than 50 µM at human factor Xa, less than 50 µM on human factor VIIa and less than 0.5 µM on human thrombin.

For the compound “Hydrocinnamoyl-[N-(2,2-(Dimethyl)-Phernethyl)-Gly]-boroOrn(CH=NH)-C10H16 HCl [Example 58.1.1]”, the inhibition constant Ki on human factor Xa, on human factor VIIa and at human thrombin was less than 0.5 µM throughout.

For the compound `CC(C)(CN(CC(=O)NC(CCCN)B1OC2CC3CC(C3(C)C)C2(C)O1)C(=O)CCc1ccccc1)c1ccccc1` (centres unmarked) [Example 60.1.1, Hydrocinnamoyl-[N-(2,2-(Dimethyl)-Phenethyl)-Gly]-boroOrn-C10H16 HCl], the values for the Ki on human factor Xa and at human thrombin were less than 50 µM and less than 0.5 µM, respectively.

With `CC(C)(CN(CC(=O)NC(CCCCN)B1OC2CC3CC(C3(C)C)C2(C)O1)C(=O)CCc1ccccc1)c1ccccc1` (centres unmarked) [Example 54.3.3, Hydrocinnamoyl-[N-(2,2-(Dimethyl)-Phenethyl)-Gly]-boroLys-C10H16 HCl], the Ki was less than 50 µM on human factor Xa and less than 0.5 µM on human factor VIIa.

As to “Hydrocinnamoyl-Sar-Lys--C(=O)--CH3 HCl [Example 61.2.3]”, the “Ki values for inhibition … Factor Xa” value on human factor Xa is given as “Inactive”. In addition, the “Ki values for inhibition … Factor VIIa” value on human factor VIIa is “Inactive”.

One may read the Ki as the equilibrium dissociation constant of an inhibitor or competing ligand from its target.
